This assay addresses T1, protein tyrosine phosphatase 1B (PTP1B) (Homo sapiens, UniProt P18031).
T1 construct: gene PTPN1; Recombinant human GST-PTP1B
T1 sequence (P18031 1-435): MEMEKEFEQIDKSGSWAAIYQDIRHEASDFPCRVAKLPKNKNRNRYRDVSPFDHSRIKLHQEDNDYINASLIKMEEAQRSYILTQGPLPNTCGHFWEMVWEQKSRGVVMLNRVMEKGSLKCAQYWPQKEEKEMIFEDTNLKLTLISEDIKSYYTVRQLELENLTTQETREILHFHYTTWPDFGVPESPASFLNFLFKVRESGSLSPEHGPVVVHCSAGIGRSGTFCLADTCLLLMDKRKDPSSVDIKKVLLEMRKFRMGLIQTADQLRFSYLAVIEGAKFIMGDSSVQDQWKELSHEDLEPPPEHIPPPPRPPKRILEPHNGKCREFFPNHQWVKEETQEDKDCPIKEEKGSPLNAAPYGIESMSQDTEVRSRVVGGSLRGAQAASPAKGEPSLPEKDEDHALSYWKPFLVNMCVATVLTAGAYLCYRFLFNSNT
Description: pNPP hydrolysis assay with purified GST-PTP1B, absorbance at […] nm. Type of assay: biochemical.

As a reminder, the IC50 is the concentration needed to halve the response being measured. Higher therefore signals weaker potency.

Take `C[C@H]1[C@H](C)CC[C@]2(C(=O)O)CC[C@]3(C)C(=CC[C@@H]4[C@@]5(C)C[C@@H](O)[C@H](O)C(C)(C)[C@@H]5CC[C@]43C)[C@H]12` [compound 3, corosolic acid]: the IC50 came out at 690 nM. This counts as sub-micromolar.

Compound `C=C1[C@H](O)[C@H](O)C[C@]2(C)[C@H]3CC=C4[C@@H]5CC(C)(C)CC[C@]5(C(=O)O)CC[C@@]4(C)[C@]3(C)CC[C@@H]12` [compound 4, 2α,3α-dihydroxy-24-nor-4(23),12-oleanadien-28-oic acid] registered an IC50 of 3980 nM. This IC50 is about 5.8-fold higher than that of the compound before.

(Values after PMC6268547, “A New Ursane-Type Nor-Triterpenoid from the Leaves of Eucommia ulmoides Oliv” (Molecules, 2012).)
